Common to all, as to type: in vivo
Test [1] has as its system C57BL/6 mice on high-fat diet (impaired glucose homeostasis). Nature of the test: Fasting blood glucose in high-fat diet mice. The following applies: HFD mice; 10 μg/kg IP every other day for two weeks; compared to vehicle (FIG. 2). The protocol: (§1) In the experiment, 8-10 weeks-old male mice (n−20) were fed a high-fat diet (60% fat). […] These mice were randomly divided into 2 groups. Mice in Group 1(n−10) received injections of 0.9% normal saline (vehicle) every other day for a duration of two weeks. Mice in Group 2 (n−10) received injections of Pam3CSK4 (SEQ ID NO: 1) (drug:10 μg/kg; IP) every other day for a duration of two weeks. Throughout the treatment period, mice were kept on a high-fat diet. A) Liver sections of the mice were stained with H&E. Referring to FIG. 2, fasting blood glucose was reduced in the mice treated with Pam3CSK4 (SEQ ID NO: 1) compared to mice treated with a vehicle. […] By non-limiting example, a vehicle may be saline, a sugar water solution, or other similar substances that may be injected without affecting the subject directly. Data is presented as mean±SD.

The subject of test [2] is CD36. Nature of the test: Liver CD36 expression by qRT-PCR in high-fat diet mice. The conditions noted are these: HFD mice; 10 μg/kg IP every other day for two weeks; liver total RNA, qRT-PCR (FIG. 3B). The protocol:
(§2) Referring to FIGS. 3A-3B, 8-10 weeks-old male mice (n−20) were fed a high-fat diet (60% fat). […] These mice were randomly divided into 2 groups. Mice in Group 1 (n=10) received injections of 0.9% normal saline (vehicle) every other day for a duration of two weeks. Mice in Group 2 (n=10) received injections of Pam3CSK4 (SEQ ID NO: 1) (drug:10 μg/kg; IP) every other day for a duration of two weeks. Throughout the treatment period, mice were kept on a high-fat diet. Total RNA was extracted from livers and expression of PPAR-γ (FIG. 3A) and CD36 (FIG. 3B) was determined by qRT-PCR. Data presents as mean±SD.

In test [3] the test system is PPAR-γ. Nature of the test: Liver PPAR-γ expression by qRT-PCR in high-fat diet mice. The following applies: HFD mice; 10 μg/kg IP every other day for two weeks; liver total RNA, qRT-PCR (FIG. 3A). The protocol:
as §2

Test [4] relates to C57BL/6 mice on high-fat diet (liver steatosis). Nature of the test: Liver section histology (H&E) in high-fat diet mice with liver steatosis. The conditions noted are these: obese HFD mice with steatosis, 10 μg/kg IP every other day for two weeks. The protocol: as §1

Ends that are not written are not given here. * marks the point of attachment. X1 = 2,3‑bis(palmitoyloxy)‑(2RS)‑propyl, CCCCCCCCCCCCCCCC(=O)OCC(C*)OC(=O)CCCCCCCCCCCCCCC; Palmitoyl = CCCCCCCCCCCCCCCC(=O)*

“Pam3CysSerLys4 (Palmitoyl-C(X1)SKKKK) [Pam3CSK4, a synthetic triacylated lipopeptide (LP) and a TLR2/TLR1 ligand]”: in test [1], the “fasting blood glucose (FBG)” value is listed as “reduced”. For the same substance, in test [2], the “CD36 expression in the liver” value is “suppressed”. In test [3], the “PPAR-γ expression in the liver” value is listed as “suppressed”. The “normal liver without any fat in treated mice” value in test [4] was found to be 100%. For the same substance, in test [4] (vs vehicle), the hepatic fat accumulation result is on record as “effectively reduces hepatic fat accumulation”.

These data come from patent US12502416B1, “PAM3CSK4 injection for the prevention and management of MASLD” (DASMAN DIABETES INSTITUTE, priority 2025, dated 2025).
